Laboratory results as given in article PMC11420944, “Targeted Degradation of Protein Kinase A via a Stapled Peptide PROTAC” (ACS Chemical Biology, 2024).

Legend:
PKAc = target: T1, PKAc (Homo sapiens, UniProt P17612); experiment: PKAc degradation in cells, Western blot densitometry; assay type: cell-based; settings: MDA-MB-231 cells, n = 3
T1 construct: degrade native PKAc in cells, MDA-MB-231 cells were used; endogenous in cells; host or cells: MDA-MB-231 (ATCC HTB-26)
Description: To determine whether StIP-TAC could successfully degrade native PKAc in cells, MDA-MB-231 cells were used. […] We hypothesized this lack of a statistically significant effect may be a result of the compound’s relatively large molecular weight (∼3 kDa) and potentially limited cellular permeability, a common limitation of PROTAC molecules.[37]−[40] […] Based on this study, we aimed to improve delivery of our compound using SAINT Protein. […] To confirm that StIP-TAC-mediated degradation of PKAc resulted from recruitment of the proteasome, we incubated cells with 10 μM StIP-TAC alongside 10 μM proteasomal inhibitor MG-132 and subsequently screened for PKAc protein levels.
Cell-based PROTAC activity assays. MDA-MB-231 cells were grown on 6-well tissue culture plates (BD Biosciences). Cells were serum-starved for 24 hours in serum-free RPMI with penicillin/streptomycin, glucose, and L-glutamine. StIP-TAC treatment was prepared with SAINT-Protein reagent according to manufacturer protocol (Synvolux) and added to cells at a final concentration of 10 µM for 5 hours. For phosphorylation studies, cells were additionally stimulated with 50 µM forskolin for 30 minutes before harvesting. For H89-treated cells, 50 μM H89 was added 30 minutes before stimulation with forskolin. For degradation studies, cells were co-treated with 10 μM MG-132 (Selleck Chemicals) alongside StIP-TAC and DMSO treatments for the duration of the 5-hour experiment. For studies examining the NAE-mediated activation of CRL, cells were co-treated with 6 μM MLN4924 (Cayman Chemical) alongside StIP-TAC for the duration of the 5-hour experiment. For studies examining potential effects of StIP-3 on PKAc protein levels, cells were treated with 10 μM StIP-3 with or without SAINT-Protein reagent for 5 hours. Cells were harvested in Laemmli sample buffer, boiled for 10 minutes and protein levels were analyzed via western blotting. For control experiments, cells were incubated for 5 hours with an equivalent volume of DMSO or SAINT-Protein to the above studies, with or without forskolin stimulation.
To assess PKA degradation, anti-PKAc (1:1000, BD Biosciences) and anti-GAPDH (1:1000, Proteintech) primary antibodies were used. To assess PKA substrate phosphorylation, anti-phospho serine/threonine PKA substrate (1:1000, Cell Signaling Technology) and anti-tubulin (1:1000, Cell Signaling Technology) primary antibodies were used. To assess phosphorylation of VASP, anti-phospho VASP (1:1000, Cell […]
Signaling Technology) and anti-GAPDH (0.5 μg/mL, DSHB) primary antibodies were used. Incubation with primary antibodies was followed by incubation with anti-mouse […]
(§1) Biosciences). Western blot fluorescence detection was performed using a LI-COR Odyssey Fc imaging system. Data analysis was performed using GraphPad Prism […]
Table S1. Peptide and PROTAC sequences, expected and observed masses determined via HPLC-MS. Asterisks (*) represent residues of (S)-2-(4-pentenyl)- […]
(1 picture or pasted object on this page, not shown here)
(§2) Figure S3: Western blots for PKA degradation. Experiments were performed in triplicate (n=3) in low passage number MDA-MB-231 cells (ATCC HTB-26). Following t = 24 hour starvation in serum-free RPMI media, cells were treated for t = 5 hours with DMSO, SAINT-Protein Lipid reagent alone, 10 µM StIP-TAC, or 10 µM StIP-TAC incubated with SAINT-Protein Lipid reagent per manufacturer instructions. […]

phospho VASP = experiment: VASP phosphorylation in forskolin-stimulated cells, Western blot; assay type: cell-based; settings: MDA-MB-231 cells, 10 µM, 5 h, 50 µM forskolin 30 min, n = 3
Protocol: (§3) Next, we sought to assess whether StIP-TAC could also downregulate PKAc signaling in cells. For this experiment, cells were treated with forskolin to stimulate PKAc activity. Cells were either treated with DMSO, the small molecule PKAc inhibitor H89, StIP-TAC alone, or StIP-TAC with SAINT protein (Figure 4; Figure S7). […] (Figure 4C,D). A known PKA substrate, vasodilator-stimulated phosphoprotein (VASP),[42] was also probed for PKA-mediated phosphorylation (Figure S8).
Cell-based PROTAC activity assays. MDA-MB-231 cells were grown on 6-well tissue culture plates (BD Biosciences). Cells were serum-starved for 24 hours in serum-free RPMI with penicillin/streptomycin, glucose, and L-glutamine. StIP-TAC treatment was prepared with SAINT-Protein reagent according to manufacturer protocol (Synvolux) and added to cells at a final concentration of 10 µM for 5 hours. For phosphorylation studies, cells were additionally stimulated with 50 µM forskolin for 30 minutes before harvesting. For H89-treated cells, 50 μM H89 was added 30 minutes before stimulation with forskolin. For degradation studies, cells were co-treated with 10 μM MG-132 (Selleck Chemicals) alongside StIP-TAC and DMSO treatments for the duration of the 5-hour experiment. […] Cells were harvested in Laemmli sample buffer, boiled for 10 minutes and protein levels were analyzed via western blotting. […]
Biosciences). Western blot fluorescence detection was performed using a LI-COR Odyssey Fc imaging system. […]
Table S1. Peptide and PROTAC sequences, expected and observed masses determined via HPLC-MS. […]
Figure S8: StIP-TAC inhibits phosphorylation of the PKA substrate VASP. […] (B) Densitometric quantification of Western blots […]
reduction in phosphorylated VASP in cells treated with H89 and StIP-TAC with SAINT Protein reagent. Quantification was performed via Li-COR Image Studio. **p=0.010; ***p<0.001; ns, not significant as assessed by one-way ANOVA and Bonferroni’s multiple comparisons test. […]

[1] = system: phospho serine/threonine PKA substrate; experiment: PKA substrate phosphorylation in forskolin-stimulated cells, Western blot; assay type: cell-based; settings: MDA-MB-231 cells, 10 µM, 5 h, 50 µM forskolin 30 min, n = 3
Protocol: as §3
Cell-based PROTAC activity assays. MDA-MB-231 cells were grown on 6-well tissue culture plates (BD Biosciences). Cells were serum-starved for 24 hours in serum-free RPMI with penicillin/streptomycin, glucose, and L-glutamine. StIP-TAC treatment was prepared with SAINT-Protein reagent according to manufacturer protocol (Synvolux) and added to cells at a final concentration of 10 µM for 5 hours. For phosphorylation studies, cells were additionally stimulated with 50 µM forskolin for 30 minutes before harvesting. For H89-treated cells, 50 μM H89 was added 30 minutes before stimulation […]
with forskolin. […]
Cells were harvested in Laemmli sample buffer, boiled for 10 minutes and protein levels were analyzed via western blotting. For control experiments, cells were incubated for 5 hours with an equivalent volume of DMSO or SAINT-Protein to the above studies, with or without forskolin stimulation.
To assess PKA degradation, anti-PKAc (1:1000, BD Biosciences) and anti-GAPDH (1:1000, Proteintech) primary antibodies were used. To assess PKA substrate phosphorylation, anti-phospho serine/threonine PKA substrate (1:1000, Cell Signaling […]
Incubation with primary antibodies was followed by incubation with anti-mouse […]
as §1
as §2, with “S7:” for “S3:”, “substrate phosphorylation.” for “degradation.”, “instructions. For forskolin-stimulated treatments, cells were incubated for 30 minutes with 50 µM forskolin” for “instructions.”
prior to harvesting in Laemmli sample buffer. For H89-inhibited treatments, cells were incubated for 30 minutes prior to forskolin stimulation with 50 µM H89. Lysates were run via SDS-PAGE and Western blotting performed anti-phospho serine/threonine PKA substrate (1:1000, Cell Signaling Technology) and anti-tubulin (1:1000, Cell Signaling Technology) primary antibodies.

- PKAc protein levels on co-treatment with NAE inhibitor MLN4924 (PKAc; 10 µM with SAINT Protein, plus 6 µM MLN4924, 5 h): rescued PKAc protein to baseline levels
- PKAc protein levels on co-treatment with proteasomal inhibitor MG-132 (PKAc; 10 µM with SAINT Protein, plus 10 µM MG-132, 5 h): rescued PKAc protein to baseline levels
- reduction of PKAc protein levels vs vehicle control (PKAc; 10 µM, 5 h, with SAINT Protein lipid reagent, normalized to GAPDH): approximately 50%
- PKAc degradation, forskolin stimulated vs unstimulated (PKAc; 10 µM, 5 h, with or without 30 min 50 µM forskolin): no significant difference
- PKAc protein levels vs vehicle control (PKAc; 10 µM, 5 h, without SAINT Protein lipid reagent, normalized to GAPDH): no significant reduction
Substance: Cereblon Ligand 1-PEG8-*TTY*DFIASGRTGRRNAI (sidechain bridge or staple) [StIP-TAC, StIP-3-derived stapled peptide conjugated to thalidomide-derived Cereblon Ligand 1 via a PEG-8 linker]
- cell permeability (cells): no longer permeable
- VASP phosphorylation (phospho VASP; with SAINT-Protein): significant inhibition
- VASP phosphorylation (phospho VASP; without SAINT Protein): did not result in a significant reduction
- PKAc substrate phosphorylation ([1]; with SAINT Protein): significant reduction in substrate phosphorylation to near basal levels
- phosphorylation of the approximately 55, 60, 80, and 100 kDa substrate bands ([1]; with SAINT Protein): statistically significant reduction
- PKAc substrate phosphorylation ([1]; without SAINT Protein): did not yield a significant reduction
